Values joined by “and” are separate entries in the source; they are usually repeats but may differ in a detail not shown here. Equal values may be shown once.
What was measured:
Syk kinase = Syk kinase (Homo sapiens, UniProt P43405); assay: SYK Enzymatic Assay (Z-LYTE Tyr 2 peptide); assay type: biochemical; settings: 8 concentrations 1 μM down to 0.0003 μM
Method in brief: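 Z-LYTE format using Tyr 2 peptide. After the 1 h room-temperature kinase reaction, development reagent was added for 1 h, then stop reagent. Fluorescence was read at 445 and 520 nm. Compounds were tested at 8 concentrations, 1 μM down to 0.0003 μM (1:3 dilutions).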

VEGFR-2 (KDR) = biological target: T1, VEGFR-2 (KDR) (Homo sapiens, UniProt P35968); assay: Transcreener Kinase Assay of VEGFR-2 (KDR); assay type: biochemical; settings: recombinant human KDR, Transcreener FP
T1 construct: purchased Invitrogen PV3660
T1 sequence (P35968 20-1356): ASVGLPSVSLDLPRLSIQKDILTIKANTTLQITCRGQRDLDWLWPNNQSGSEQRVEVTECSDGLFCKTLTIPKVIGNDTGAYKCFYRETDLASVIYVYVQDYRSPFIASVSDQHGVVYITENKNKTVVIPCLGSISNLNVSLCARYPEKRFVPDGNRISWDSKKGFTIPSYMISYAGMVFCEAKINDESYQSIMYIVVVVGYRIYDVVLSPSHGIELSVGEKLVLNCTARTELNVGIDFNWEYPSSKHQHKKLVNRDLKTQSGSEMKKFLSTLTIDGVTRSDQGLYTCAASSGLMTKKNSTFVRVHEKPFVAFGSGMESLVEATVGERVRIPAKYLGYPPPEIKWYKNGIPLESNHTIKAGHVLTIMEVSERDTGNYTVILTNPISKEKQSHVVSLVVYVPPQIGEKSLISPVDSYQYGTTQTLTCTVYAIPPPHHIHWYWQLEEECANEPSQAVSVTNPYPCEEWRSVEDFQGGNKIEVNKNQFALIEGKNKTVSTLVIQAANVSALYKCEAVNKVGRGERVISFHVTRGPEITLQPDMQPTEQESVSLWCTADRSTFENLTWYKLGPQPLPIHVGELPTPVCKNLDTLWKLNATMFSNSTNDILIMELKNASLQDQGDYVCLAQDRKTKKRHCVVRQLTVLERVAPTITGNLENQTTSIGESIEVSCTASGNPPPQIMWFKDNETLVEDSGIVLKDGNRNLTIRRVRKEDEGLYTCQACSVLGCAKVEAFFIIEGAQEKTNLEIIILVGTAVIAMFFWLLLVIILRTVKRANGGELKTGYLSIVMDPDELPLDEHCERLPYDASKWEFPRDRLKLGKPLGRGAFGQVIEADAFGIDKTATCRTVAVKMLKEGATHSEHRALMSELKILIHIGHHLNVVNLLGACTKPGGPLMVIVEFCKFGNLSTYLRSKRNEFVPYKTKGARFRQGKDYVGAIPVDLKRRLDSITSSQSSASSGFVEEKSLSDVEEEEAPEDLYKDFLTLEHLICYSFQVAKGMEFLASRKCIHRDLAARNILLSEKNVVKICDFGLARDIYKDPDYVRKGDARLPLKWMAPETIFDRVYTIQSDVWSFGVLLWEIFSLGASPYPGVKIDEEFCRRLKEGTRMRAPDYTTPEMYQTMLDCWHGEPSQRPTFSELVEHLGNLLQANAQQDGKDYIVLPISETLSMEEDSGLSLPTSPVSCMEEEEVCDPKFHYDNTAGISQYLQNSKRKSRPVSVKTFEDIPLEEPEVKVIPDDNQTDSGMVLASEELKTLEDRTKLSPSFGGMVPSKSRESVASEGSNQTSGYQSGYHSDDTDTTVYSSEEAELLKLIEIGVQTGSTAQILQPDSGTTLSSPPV
Method: Transcreener Kinase Assay of VEGFR-2 (KDR)
• 1) Transcreenen™ KINASE Assy kit: Bellbrook Labs., 3003-10K; • 2) Recombinant human KDR: Invitrogen, PV3660; • 3) Poly E4Y (substrate): Sigma, P0275; 5 mg/mL, dissolved in MilliQ water; • 4) Assay buffer: 67 mM HEPES, 0.013% Triton X-100, 27 mM MgCl2, 0.67 mM MnCl2, 1.25 mM DTT, PH 7.4; • 5) 10 mM ATP: Invitrogen, PV3227; • 6) 500 mM EDTA: Invitrogen, 15575-038; • 7) 96 well black Greiner plate: Greiner, 675076.
• 1) Dilute the compound to 5 folds of final concentrations, keeping the DMSO concentration at 5%. The final concentrations are 1, 0.33, 0.11, 0.037, 0.012, 0.004, 0.0014, 0.0005 μM; and the final concentration of DMSO is 1%. • 2) Prepare Enzyme/Substrate stock, Recombinant human KDR and Poly E4Y are both diluted in assay buffer. The final concentration is KDR (0.3 ng/μL), Poly E4Y (62.5 ng/μL). […]
Wherein: • 1) Compound well [ADP] represents the ADP concentration of compound well. • 2) Positive control well [ADP] represents the ADP concentration of 5% DMSO well • 3) Conversion of mP value to ADP concentration based on the formula which determined by standard curve. […] (www.bellbrooklabs.com). • IC50: calculated using XL-Fit 2.0 software.

RBL-2H3 cells = assay: IgE-induced Beta-hexosaminidase secretion in RBL-2H3 cells; assay type: cell-based; settings: Rattus norvegicus, RBL-2H3, IgE-induced Beta-hexosaminidase secretion, DNP-BSA stimulation
Method in brief: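 RBL-2H3 cells sensitized overnight with 0.5 ug/ml SPE-7 IgE, washed, preincubated with compound 20 min at 37° C, then stimulated with DNP-BSA (150 ng/mL stock) for 45 min. Released β-hexosaminidase measured on supernatant with 1 mM 4-nitrophenyl N-acetyl-β-D-glucosaminide, pH 4.5, 1.5 hr at 37° C; absorbance 405 nm after carbonate quench.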

SMILES | IC50 (Syk kinase) | IC50 (VEGFR-2 (KDR)) [nM] | IC50 (RBL-2H3 cells) [nM]
CC(C)(O)c1ccc(-c2cc3nccnc3c(OC[C@@H]3CN(S(C)(=O)=O)CCO3)n2)cc1 [Compound 219] | 32 nM and 28 nM | 748 | 37
CC(=O)N1CCO[C@H](COc2nc(-c3ccc4c(c3)CCOC4(C)C)cc3nccnc23)C1 [Compound 300] | 30 nM | 1130 | 52

Reference: patent US20170152258A9, “Substituted Pyridopyrazines as Syk Inhibitors” (HUTCHISON MEDIPHARMA LIMITED, priority 2012, published 2017)
